Each compound was assayed on Acinetobacter baumannii (assay: Antibacterial activity against Acinetobacter baumannii ATCC 17961 assessed as inhibition of bacterial growth after 16 hrs by two fold dilution method).
Type: functional
`CCc1cc(NC(=O)c2ncc(-c3ccc(OC)c(F)c3F)n2C)ccc1C(=O)N1CCN(CCCN(C)C)CC1` showed an IC90 of 260 nM.
Work on `COc1ccc(-c2cnc(C(=O)Nc3ccc(C(=O)N4CCC(OCCN)CC4)c(Cl)c3)n2C)c(F)c1F` yielded an IC90 of 40 nM.
For `COc1ccc(-c2cnc(C(=O)Nc3ccc(C(=O)N4CCC(C(=O)[C@H]5CCNC[C@H]5O)CC4)c(Cl)c3)n2C)c(F)c1F`, the IC90 was 90 nM.
`COc1ccc(-c2cnc(C(=O)Nc3ccc(C(=O)N4CCC(C(=O)NCCC(=O)O)CC4)c(Cl)c3)n2C)c(F)c1F` was tested, and the IC90 was 3300 nM.
Work on `Cn1c(-c2ccc(OC(F)F)c(F)c2F)cnc1C(=O)Nc1ccc(C(=O)N2CCC(C(=O)N3CCC(C(N)=O)C3)CC2)c(Cl)c1` (centres undefined) yielded an IC90 of 150 nM.
`Cn1c(-c2ccc(OC(F)F)c(F)c2F)cnc1C(=O)Nc1ccc(C(=O)N2CCC(C(=O)NC[C@H]3CCNC3)CC2)c(Cl)c1` showed an IC90 of 40 nM.
Work on `COc1ccc(-c2cnc(C(=O)Nc3ccc(C(=O)N4CCC(C(=O)[C@@H]5CCNC[C@H]5O)CC4)c(Cl)c3)n2C)c(F)c1F` yielded an IC90 of 100 nM.
Compound `COc1ccc(-c2cnc(C(=O)Nc3ccc(C(=O)N4CCC(CCN)CC4)c(Cl)c3)n2C)c(F)c1F` has an IC90 of 30 nM.

These compounds were tested on Acinetobacter baumannii (assay: Antibacterial activity against Acinetobacter baumannii ATCC 17978 assessed as inhibition of bacterial growth after 16 hrs by two fold dilution method).
Type: functional
In the case of `Cn1c(-c2ccc(OCC#N)c(F)c2F)cnc1C(=O)Nc1ccc(C(=O)N2CCC(C(=O)N3CCSCC3)CC2)c(Cl)c1`, the IC90 is reported as 210 nM.
Compound `CN(C)CCCN1CCN(C(=O)c2ccc(NC(=O)c3ncc(-c4ccc(OCC#N)c(F)c4F)n3C)cc2Cl)CC1` has an IC90 of 70 nM.
`CNCCN1CCN(C(=O)c2ccc(NC(=O)c3ncc(-c4ccc(OC)c(F)c4F)n3C)cc2Cl)CC1` was tested, and the IC90 was 80 nM.
`COc1ccc(-c2cnc(C(=O)Nc3ccc(C(=O)N4CCC(CN)CC4)c(Cl)c3)n2C)c(F)c1F` was tested, and the IC90 was 300 nM.
`COc1ccc(-c2cnc(C(=O)Nc3ccc(C(=O)N4CCN(C(=O)[C@@H]5C[C@@H](O)CN5)CC4)c(Cl)c3)n2C)c(F)c1F` gave an IC90 of 100 nM.
With `CCc1cc(NC(=O)c2ncc(-c3ccc(OC)cc3Cl)n2C)ccc1C(=O)N1CCN(CCNC)CC1` the IC90 was 2300 nM.
